Experimental data reported in patent publication US7893299B2, “Interleukin-1 and tumor necrosis factor-αmodulators; syntheses of such modulators and methods of using such modulators” (Nereus Pharmaceuticals, Inc., priority 2005, dated 2011).
Read-outs that look alike come from different tables or passages of the source.

Tests used:
IκBα phosphorylation = test: phosphorylation level of IκBα in LPS-stimulated HPBMC (western blot); format: cell-based, Human; settings: 13 μM, 20 ng/ml LPS, compared with DMSO control
Procedure: One ml/well of 3×10^6/ml HPBMC were seeded in 6-well plate in LGM-3 medium and cultured for 12 hr at 37° C., 5% CO2 and 95% humidified air. Final concentration of 13 μM for formula (IIB-A1) (or 10 μM for TTL3) was added to HPBMC for 1 hr. DMSO was used as a control. Cells were then stimulated with 20 ng/ml LPS diluted in LGM-3 medium from 1 mg/ml stock solution for 30 min, 1 hr, 2 hr and 4 hr. At the end of each time point, cells were harvested by centrifugation and cell pellets were washed once in ice-cold 1× Dulbecco's Phosphate buffered Saline (DPBS). To prepare samples for SDS Polyacrylamide Gel Electrophoresis (SDS-PAGE), cells were lysed in RIPA buffer (50 mM Tris-HCl, pH7.4, 0.9% NaCl, 1% Triton X-100, 0.25% Na-deoxycholate, 1 mM EDTA, 2 mM Na3VO4 and 1× protease inhibitors cocktail) for 15 min on ice. Cell lysates were cleared by centrifugation at 14,000 rpm, 4° C. for 10 min. Protein concentrations of cell lysates were determined by BCA protein assay kit prior to SDS-PAGE. Equal amount of proteins from various cell lysates were resolved on 10% NuPage MES precast gels and transferred to nitrocellulose membranes according to the manufacturer's instructions. […]

PC3 (Prostate) = test: 48 hr cytotoxicity, PC-3; format: cell-based, human
Procedure: B16-F10 (ATCC; CRL-6475), DU 145 (ATCC; HTB-81), HEK293 (ATCC; CRL-1573), HT-29 (ATCC; HTB-38), LoVo (ATCC; CCL-229), MDA-MB-231 (ATCC; HTB-26), MIA PaCa-2 (ATCC; CRL-1420), NCI-H292 (ATCC; CRL-1848), OVCAR-3 (ATCC, HTB-161), PANC-1 (ATCC; CRL-1469), PC-3 (ATCC; CRL-1435), RPMI 8226 (ATCC; CCL-155) and U266 (ATCC; TIB-196) are maintained in appropriate culture media. The cells are cultured in an incubator at 37° C. in 5% CO2 and 95% humidified air.
For cell growth inhibition assays, B16-F10, DU 145, HEK293, HT-29, LoVo, MDA-MB-231, MIA PaCa-2, NCI-H292, OVCAR-3, PANC-1, PC-3, RPMI 8226 and U266 cells are seeded at 1.25×10^3, 5×10^3, 1.5×10^4, 5×10^3, 5×10^3, 1×10^4, 2×10^3, 4×10^3, 1×10^4, 7.5×10^3, 5×10^3, 2×10^4, 2.5×10^4 cells/well respectively in 90 μl complete media into Corning 3904 black-walled, clear-bottom tissue culture plates. 20 mM stock solutions of compounds of Formula II, IIA, and IIB are prepared in 100% DMSO, aliquoted and stored at −80° C. Compounds of Formula II, IIA, and IIB are serially diluted and added in triplicate to the test wells resulting in final concentrations ranging from of 20 μM to 0.2 pM. […]
Following 48 hours of drug exposure, 10 μl of 0.2 mg/ml resazurin (obtained from Sigma-Aldrich Chemical Co.) in Mg^2+, Ca^2+ free phosphate buffered saline is added to each well and the plates are returned to the incubator for 3-6 hours. Since living cells metabolize Resazurin, the fluorescence of the reduction product of Resazurin is measured using a Fusion microplate fluorometer (Packard Bioscience) with λex=535 nm and λem=590 nm filters. […]
The cytotoxicity assays were performed by seeding individual cell lines at appropriate density in the 96 well flat-bottomed plates and allowed to attach for 24 hours at 37° C., 5% CO2 and 95% humidified air (RPMI 8226 and U266 cells were plated in 96 well plates on the day of compound addition). […] Cell viability was assessed 48 hours later by measuring the fluorescence of the reduction product of Resazurin by a Fusion microplate fluorometer (PerkinElmer) with λex=535 nm and λem=590 nm filters. […]

| Structure (SMILES) | level of IκBα phosphorylation in LPS-stimulated HPBMC (IκBα phosphorylation; listed as Formula (IIB-a1)) | level of IκBα phosphorylation in LPS-stimulated HPBMC (IκBα phosphorylation; listed as formula (IIB-A1)) | IC50 (PC3 (Prostate)) | IC50 (PC3 (Prostate); Homo sapiens, 48 h) |
| --- | --- | --- | --- | --- |
| C=C[C@@]1(C)CCC=C2[C@H]1CC[C@@H]1[C@](C)(C(=O)NC3CCCCC3)CCC[C@@]21C [Formula (IIB-A1), N-Cyclohexylamide Derivative of TTL] | decrease | effectively inhibited |  |  |
| C=CC(=O)C1(C)CCCC2(C)C3=CCC(C)(C=C)C[C@@H]3CC[C@H]12 (stereo in doubt) [NPI-1387, 1-[(1S,4aS,7R)-1,4a,7-Trimethyl-7-vinyl-1,2,3,4,4a,6,7,8,8a,9,10,10a-dodecahydro-1-phenanthrenyl]-2-propen-1-one] |  |  | 10 ± 2 µM | 11 ± 2 µM |
